The source of these data is patent US20130281493A1, “Method for Treating Cancer Harboring a p53 Mutation” (The Trustees of The University of Columbia in the City of …, priority 2010, published 2013).

In one data set the target is T1, squalene synthase (Homo sapiens, UniProt P37268).
T1 sequence (P37268 1-417): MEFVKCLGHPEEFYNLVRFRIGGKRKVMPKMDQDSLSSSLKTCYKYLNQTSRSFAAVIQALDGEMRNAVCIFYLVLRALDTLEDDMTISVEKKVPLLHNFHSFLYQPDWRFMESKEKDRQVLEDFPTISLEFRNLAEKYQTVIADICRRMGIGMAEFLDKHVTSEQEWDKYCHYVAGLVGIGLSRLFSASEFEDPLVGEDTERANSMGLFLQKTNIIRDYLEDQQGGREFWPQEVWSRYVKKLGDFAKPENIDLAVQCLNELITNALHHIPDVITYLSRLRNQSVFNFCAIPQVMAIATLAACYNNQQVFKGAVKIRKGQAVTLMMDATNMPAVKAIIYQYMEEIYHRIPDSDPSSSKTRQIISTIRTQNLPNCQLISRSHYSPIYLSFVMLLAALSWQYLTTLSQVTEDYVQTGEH
Conditions: Ugawa et al., 2000; cited from earlier work.

The test system of data set [1] is MDA-231 cells. The data set can be described thus: 3D culture of MDA-231 breast cancer cells (growth, invasive morphology). Format: cell-based. As for the experimental part:
(§1) Cells were then seeded at a density of 5,000 cells/well in Assay Medium (DMEM/F12+2% Horse Serum+10 μg/ml Insulin+0.5 μg/ml Hydrocortisone [+5 ng/ml EGF for MCF10A cultures]) containing 2% Matrigel.
(§2) Cells were fixed using 2% formaldehyde at room temperature for at least 30 min. […] Primary antibodies were incubated with the cultures for 1-2 hr at room temperature, followed by washing, and addition of fluorescently-conjugated secondary antibodies for 40 min at room temperature. Nuclei were counterstained with DRAQ5 (Cell Signaling #4084) or Propidium Iodide (Sigma #P4170). Confocal microscopy was conducted using an Olympus IX81 confocal microscope and analyzed using Fluoview software.
(§3) Cells were treated on Day 1 or Day 4 of the 3D protocol (as described in the figure legends) and refed every 4 days with fresh drug. […] This range approximates clinically achievable serum concentrations in human patients (Dimitroulakos et al., 1999; Wong et al., 2002), • 6-Fluoromevalonate (200 μM) as previously described (Cuthbert and Lipsky, 1990) and YM-53601, FTI-277 or GTI-2133 at or above their reported IC50 in cells (Lerner et al., 1995; Ugawa et al., 2000; Vasudevan et al., 1999), and with • Fatostatin at either 2 μM or 20 μM as previously described (Kamisuki et al., 2009).

Another data set deals with MDA-468 cells. The data set can be described thus: 3D culture of MDA-468 breast cancer cells (growth, morphology). Format: cell-based. As for the experimental part:
as §1, §2, §3

Another data set concerns MDA-468.shp53 cells. The experiment in a line: Add-back in 3D culture of MDA-468.shp53 cells depleted of mutant p53 (+DOX). Format: cell-based. To be noted: MVA and MVAP added together, 1 mM each, from Day 1, 8 days.
The test system of the next data set is MCF10A cells. The experiment in a line: 3D culture of non-malignant MCF10A mammary epithelial cells (acinar morphology, luminal clearance). To be noted: 1 mM, 8 days. In kind it is cell-based, human. As for the experimental part:
Cells were fixed using 2% formaldehyde at room temperature for at least 30 min. […] Primary antibodies were incubated with the cultures for 1-2 hr at room temperature, followed by washing, and addition of fluorescently-conjugated secondary antibodies for 40 min at room temperature. Nuclei were counterstained with DRAQ5 (Cell Signaling #4084) or Propidium Iodide (Sigma #P4170). Confocal microscopy was conducted using an Olympus IX81 confocal microscope and analyzed using Fluoview software. Cells were treated on Day 1 or Day 4 of the 3D protocol (as described in the figure legends) and refed every 4 days with fresh drug. […] This range approximates clinically achievable serum concentrations in human patients (Dimitroulakos et al., 1999; Wong et al., 2002), • 6-Fluoromevalonate (200 μM) as previously described (Cuthbert and Lipsky, 1990) and YM-53601, FTI-277 or GTI-2133 at or above their reported IC50 in cells (Lerner et al., 1995; Ugawa et al., 2000; Vasudevan et al., 1999), and with • Fatostatin at either 2 μM or 20 μM as previously described (Kamisuki et al., 2009).

Data set [2] is described as follows: Serum level at the dose used in the mouse experiments. Format: in vivo. Conditions: mice, 200 mg/kg/day.
The test system of data set [3] is MDA-231 cells. The data set can be described thus: MDA-231 subcutaneous tumor growth in NOD-SCID mice. Conditions: 200 mg/kg/day, after 21 days of treatment. Format: in vivo.
Description: 2×10^6 MDA-231 cells were injected subcutaneously into 8 week-old NOD-SCID mice. […] Tumor measurements were performed weekly using calipers. After 21 days of treatment, mice were sacrificed and tumors were extracted and weighed. Tumor volumes as a function of time (left) and tumor weights at day 21 (right) are presented. *denotes p<0.01, **denotes p<0.001 using a two-tailed students t-test. […] 2×10^6 MDA-231 cells were injected subcutaneously into 8 week-old NOD-SCID mice. […] Tumor measurements were performed weekly using calipers. After 21 days of treatment, mice were sacrificed and tumors were extracted and weighed. Tumor volumes as a function of time (left) and tumor weights at day 21 (right) are presented. *denotes p<0.01, **denotes p<0.001 using a two-tailed students t-test.
The next data set has as its system MDA-231.shp53 cells. To be noted: 25 μM from Day 1, 8 days, +DOX.
Data set [4] addresses geranylgeranyl transferase (Homo sapiens, UniProt P49354+P53609). Conditions: low micromolar concentrations; Lerner et al., 1995; cited from earlier work.
For the next data set, the system named is squalene synthesis. To be noted: low micromolar concentrations; Lerner et al., 1995; cited from earlier work.
The target of another data set is farnesyltransferase (Homo sapiens, UniProt P49354+P49356). Conditions: whole cells; Lerner et al., 1995; cited from earlier work.

Description for MDA-231.shp53 cells: (§4) Three-dimensional culture was carried out as previously described (Debnath et al., 2003). Briefly, 8-well chamber slides were lined with 50 μl growth factor reduced Matrigel (BD Biosciences). […] Cells were refed with Assay Medium containing 2% Matrigel every 4 days. For RNA/protein analysis from 3D cultures, 35 mm plates were lined with 500 μl Matrigel and cells were seeded at a density of 225,000 cells/plate in Assay Medium+2% Matrigel. Cells were harvested using Cell Recovery Solution (BD Biosciences) according to the manufacturer's instructions.
Description for MDA-468.shp53 cells: as §4

In the case of `F/C(COc1ccc2c(c1)[nH]c1ccccc12)=C1/CN2CCC1CC2` [YM-53601], at squalene synthase, the “concentrations that inhibit squalene synthase” value is given as “submicromolar”. Moreover, the “effect on growth of MDA-231 cells in 3D culture” value (“effect on growth” below) in the data set on MDA-231 cells [1] (1 uM, added Day 1, 8 days) is “only a mild effect”. Besides, in the data set on MDA-231 cells [1] (10 uM), the “killing of cancer cells in 3D culture” value was “killed all the cancer cells”.

Turning to `CC(C)C[C@H](NC(=O)c1ccc(NCc2cnc[nH]2)cc1-c1cccc2ccccc12)C(=O)O` [GTI-2133], in the data set with MDA-231 cells [1] (1 uM, added Day 1, 8 days), the “effect on growth” value was “profound impact” and the “effect on invasive morphology of MDA-231 cells in 3D culture” value is “profound impact”.

Turning to `CC[C@H](C)C(=O)O[C@H]1CCC=C2C=C[C@H](C)[C@H](CC[C@@H]3C[C@@H](O)CC(=O)O3)[C@H]21` [Mevastatin], in the data set with MDA-468 cells (1 μM, added Day 4, 13 days), the “3D morphology of MDA-468 cells” value is on record as “profoundly affects”. Also, the “3D morphology of MDA-231 cells” value in the data set with MDA-231 cells [1] (1 μM, added Day 4, 13 days) is given as “profoundly affects”.

In the case of `C[C@@](O)(CCO)CC(=O)O` (racemic) [mevalonic acid], the “effect on phenotypic reversion caused by mutant p53 knockdown” value in the data set with MDA-468.shp53 cells was “dramatically inhibit”. Further, the “rescue of the phenotypic effects of statin treatment in 3D culture” value with MDA-468 cells (MDA-468 treated with Simvastatin 1 μM, supplemented) is given as “blocked many of the phenotypic effects of statins”; in the data set with MDA-231 cells [1] (MDA-231 treated with Simvastatin 1 μM, supplemented), “blocked many of the phenotypic effects of statins”. In the data set with MCF10A cells, the “luminal clearance in MCF10A cells” value is recorded as “sufficient to block luminal clearance”.

Regarding `CCC(C)(C)C(=O)O[C@H]1C[C@@H](C)C=C2C=C[C@H](C)[C@H](CC[C@@H]3C[C@@H](O)CC(=O)O3)[C@H]21` [Simvastatin], the serum levels entry in [2] is “about 100 micromolar”. Besides, in the data set with MDA-231 cells [3], the “reduction of tumor size” value is given as “about 40%”.

For the compound `O=C(O)CC(O)(CF)CCO` (stereo not drawn) [6-fluoromevalonate, 6-Fluoromevalonate], the “phenotypic effects in 3D culture compared with HMG-CoA reductase inhibition by statins” value in the data set with MDA-468 cells (MDA-468, 200 μM, added Day 1, 8 days) is listed as “remarkably similar phenotypic effects”; with MDA-231 cells [1] (MDA-231, 200 μM, added Day 1, 8 days), “remarkably similar phenotypic effects”.

For the compound `CC(C)=CCC/C(C)=C/CC/C(C)=C/CC/C(C)=C/COP(=O)(O)OP(=O)(O)O` [Geranylgeranyl pyrophosphate], the “rescue of the morphological effects of HMG-CoA reductase inhibition” value with MDA-231 cells [1] (MDA-231 with Simvastatin 1 μM, 25 μM GGPP, 8 days) is “partially rescue”. Further, the “rescue of the morphological effects of mutant p53 depletion” value with MDA-231.shp53 cells was “partially rescue”.

Take `COC(=O)[C@H](CCSC)NC(=O)c1ccc(NC[C@@H](N)CS)cc1-c1ccccc1` [FTI-277]: the “effect on geranylgeranyl transferase” value in [4] was “no effect”. The “effect on growth” value in the data set with MDA-231 cells [1] (1 uM, added Day 1, 8 days) is reported as “only a mild effect”. For the same compound, in the data set with squalene synthesis, the “effect on squalene synthesis” value was “no effect”. Besides, on farnesyltransferase, the “concentrations that block farnesylation via inhibition of farnesyltransferase” value is recorded as “nanomolar”.
